Test results: patent publication US10682371B2, “Small molecule conjugates specifically activated in tumor microenvironment for targeting and use thereof” (priority 2014, dated 2020)
Read-outs that look alike come from different tables or passages of the source.

How the values were obtained:
tumor tissue homogenates = format: biochemical
In short: (§1)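 Protease-driven activation measured in acidized (pH 6.0) tissue homogenates, 100 μg. Incubation at 37°C with compound at 1 mg/ml.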

[1] = test system: Human fibrosarcoma HT-1080 tumor tissue homogenate; format: biochemical; details: for Activation ratio (%) in homogenates from different tumor tissues: Human fibrosarcoma HT-1080; for Activation Efficiencies (%): Human fibrosarcoma HT-1080 tumor tissue homogenate (30 μg/ml), 1 mg/ml compound
In short: as §1

BALB/C mice = assay: Maximum tolerated dose (MTD) / acute toxicity by single intravenous injection; details: for Behaviors and death observed: BALB/C mice receiving 90 mg/kg injection
[2] = Solubility / formulation test in solvent 1 and solvent 2; format: physicochemical; details: for Concentration achieved, completely dissolved in both solvent 1 and solvent 2: solvent 1 injectable water
Protocol: In Table 11, AAN, AANL and AANK indicate the linkage formed by small peptides in the compounds, A is Ala, N is Asn, L is Leu and K is Lys. […] The dissolution concentration is 10 mg/ml.
B1, B2, B3 and B4 and various control compounds were dried under vacuum, sterilized via gas sterilization, and separately packing in a sterile room. Before animal test, B1, B2, B3 and B4 were dissolved by solvent 1 (injectable water) or solvent 2 (30% alcohol, 70% injectable water) and diluted by injectable water to the desired concentration in sterile room. […] Change in solubility may greatly affect the formulation scheme of a drug.
D1, D2, D3, D4 and various control compounds were dried under vacuum, sterilized via gas sterilization, and separately packing in a sterile room. […] Change in solubility may greatly affect the formulation scheme of a drug.

[3] = test system: Human prostate cancer PC-3 cells / Panc-1 cells; assay: Tumor treatment in nude mice (PC-3 cells purchased, Panc-1 cells injected; Examples 22, 32, 42); format: in vivo; details: for Inhibition on tumor growth, in words: compared with parent drug group (same molar concentration) and control group
In short: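 Nude mice bearing subcutaneous Panc-1 xenografts (5×10^6 cells on the back) were randomized once tumors reached at least 100 mm^3. Drugs were given intravenously once weekly for four weeks, with saline controls. PC-3 cells were grown in DMEM/10% FBS and used within passage 15.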

4T1 cells = assay: BALB/C mice model for tumor metastasis (4T1, lung metastases); format: in vivo; details: for Inhibitory rate on metastasis / Number of metastasized tumor: IV every three days for 4 times, Paclitaxel 4 mg/kg; for Inhibitory effect on tumor metastasis, in words: compared with parent drug group and control group
In short: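 Read-out: lung metastasis count under anatomical microscope after Bouin's staining, day 27. Treatment (IV every three days ×4, saline for controls) started after surgical removal of the ~1.5 cm subcutaneous tumor grown from 10^6 4T1 cells (passage ≤15) in BALB/C mice.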

HEK293 cells = format: cell-based; details: for Cytoxicity reduced (Multiple): HEK293, 72 hours, MTT, IC50 of modified compound compared to its corresponding cytotoxic compound, approximate multiples
Protocol: Toxicity detection method: a standard universal test program was used to perform the in vitro cytotoxicity test. 2500 HEK293 cells were cultured in a 96-well plate, and allowed to grow overnight. Cytotoxic compounds and their corresponding conjugated compounds were added into each well in different concentrations, cultivated with the cells at 37° C. for 72 hours, and then treated with MTT reagents. OD changes were read. The approximate multiples of the toxicity change were obtained by comparing the IC50 of the modified compounds to their corresponding cytotoxic compounds.

[4] = nude mice, IV once weekly for four weeks, S1′-S4′ 24 mg/kg, Paclitaxel 8 mg/kg, Day 10
[5] = nude mice, IV once weekly for four weeks, S1′-S4′ 24 mg/kg, Paclitaxel 8 mg/kg
[6] = 4T1, BALB/C mice, lung, day 27, S1′-S4′ 12 mg/kg
[7] = single intravenous injection, 125 mg/kg, 10 BALB/C mice per group
[8] = single intravenous injection, 150 mg/kg, 10 BALB/C mice per group
[9] = single intravenous injection, 175 mg/kg, 10 BALB/C mice per group
[10] = single intravenous injection, 200 mg/kg, 10 BALB/C mice per group
[11] = Table 26, nude mice, IV once weekly for four weeks, A1-A4 24 mg/kg, Paclitaxel 8 mg/kg
[12] = Table 28, BALB/C mice, 4T1, lung metastases day 27, A1-A4 12 mg/kg

Compound: COCCOCCOCCOCCOCCOCCOCCOCCOCCOCCOCCOCC(=O)N[C@H](C)C(=O)N[C@H](C)C(=O)N[C@H](CC(N)=O)C(=O)Nc1ccc(COC(=O)OC(C(=O)OC2C[C@@]3(O)[C@@H](OC(=O)c4ccccc4)[C@H]4[C@](C)(C(=O)[C@H](OC(C)=O)C(=C2C)C3(C)C)[C@@H](O)CC2OC[C@]24OC(C)=O)[C@@H](NC(=O)c2ccccc2)c2ccccc2)cc1 (some centres unmarked) [S3′]
- Activation efficiency by tumor tissue, in words (tumor tissue homogenates): highest activation efficiency among the screened compounds
- Activation ratio (%) in homogenates from different tumor tissues ([1]; 100 μg acidized homogenate pH6.0, 1 mg/ml, 37°): 67.9%
- Behaviors and death observed (BALB/C mice): no pilo-erection, hair tousle and lackluster, lethargy, stoop, irritable reaction and death
- Mortality rate (%) (BALB/C mice; BALB/C mice, single iv, 125 mg/kg): 0%
- Number of dead animal (BALB/C mice; BALB/C mice, single iv, 125 mg/kg, 10 animals): 0
- Mortality rate (%) (BALB/C mice; BALB/C mice, single iv, 150 mg/kg): 0%
- Number of dead animal (BALB/C mice; BALB/C mice, single iv, 150 mg/kg, 10 animals): 0
- Mortality rate (%) (BALB/C mice; BALB/C mice, single iv, 175 mg/kg): 0%
- Number of dead animal (BALB/C mice; BALB/C mice, single iv, 175 mg/kg, 10 animals): 0
- Mortality rate (%) (BALB/C mice; BALB/C mice, single iv, 200 mg/kg): 10%
- Number of dead animal (BALB/C mice; BALB/C mice, single iv, 200 mg/kg, 10 animals): 1
- solubility in Solvent 1 ([2]; Solvent 1 injectable water, dissolution concentration 10 mg/ml): soluble
- solubility in Solvent 2 ([2]; Solvent 2: 50% injectable water, 45%-49% propanediol, 1%-5% Tween80, dissolution concentration 10 mg/ml): soluble
- Concentration achieved, completely dissolved in both solvent 1 and solvent 2 ([2]; solvent 2 50% injectable water, 42%-49% propanediol, 1%-8% Tween80): 10000 µg/mL
- Inhibition on tumor growth, in words [3]: greatly improved
- Size of tumor (mm^3) Day 10 [3, 4]: 75.60 ± 28.54 mm^3
- inhibitory rate on tumor Day 10 [3, 4]: 49.4%
- Size of tumor (mm^3) Day 24 [3, 5]: 74.39 ± 48.94 mm^3
- inhibitory rate on tumor Day 24 [3, 5]: 70.2%
- Inhibitory rate on metastasis (4T1 cells; [6]): 90.44%
- Number of metastasized tumor (4T1 cells; [6]): 13 ± 8
- Inhibitory effect on tumor metastasis, in words (4T1 cells): greatly improved

Compound: 4-N—(N—(N—(N-(6-maleimido caproyl)-L-alanyl)-L-alanyl)-L-asparaginyl)-amino benzyl alcohol-MMAE-carbamate [Compound S6]
- Cytoxicity reduced (Multiple) (HEK293 cells): 35 Multiple
- Cytoxicity reduced (Multiples) (HEK293 cells; different cleavable linkers of MMAE and Doxorubicin): 35 Multiples
- Activation efficiency by tumor tissue, in words (tumor tissue homogenates): relatively low activation efficiency
- Activation Efficiencies (%) [1]: 24.3%

Compound: COc1cccc2c1C(=O)c1c(O)c3c(c(O)c1C2=O)C[C@@](O)(C(C)=O)C[C@@H]3O[C@H]1C[C@H](NC(=O)OCc2ccc(NC(=O)[C@H](CC(N)=O)NC(=O)[C@H](C)NC(=O)[C@H](C)NC(=O)CCCCCN3C(=O)C=CC3=O)cc2)[C@H](O)[C@H](C)O1 [Compound S5, 4-N—(N—(N—(N-(6-maleimidocaproyl)-L-alanyl)-L-alanyl)-L-asparaginyl)-amino benzyl alcohol-daunorubicin-carbamate]
- Cytoxicity reduced (Multiple) (HEK293 cells): 125 Multiple
- Activation Efficiencies (%) [1]: 98.4%

Compound: COCCOCCOCCOCCOCCOCCOCCOCCOCCOCCOCCOCC(=O)NCCCC[C@H](NC(=O)COCCOCCOCCOCCOCCOCCOCCOCCOCCOCCOCCOC)C(=O)N[C@H](C)C(=O)N[C@H](C)C(=O)N[C@H](CC(N)=O)C(=O)Nc1ccc(COC(=O)OC(C(=O)OC2C[C@@]3(O)[C@@H](OC(=O)c4ccccc4)[C@H]4[C@](C)(C(=O)[C@H](OC(C)=O)C(=C2C)C3(C)C)[C@@H](O)CC2OC[C@]24OC(C)=O)[C@@H](NC(=O)c2ccccc2)c2ccccc2)cc1 (some centres unmarked) [Compound A3]
- Activation efficiency by tumor tissue, in words (tumor tissue homogenates): highest activation efficiency among the screened compounds
- Activation ratio (%) in homogenates from different tumor tissues ([1]; 1 mg/ml, 100 μg acidized homogenate pH6.0, Paclitaxel release by HPLC): 70.3%
- Behaviors and death observed (BALB/C mice): no pilo-erection, hair tousle and lackluster, lethargy, stoop, irritable reaction and death
- Mortality rate (%) (BALB/C mice; [7]): 10%
- Number of dead animal (BALB/C mice; [7]): 1
- Mortality rate (%) (BALB/C mice; [8]): 0%
- Number of dead animal (BALB/C mice; [8]): 0
- Mortality rate (%) (BALB/C mice; [9]): 0%
- Number of dead animal (BALB/C mice; [9]): 0
- Mortality rate (%) (BALB/C mice; [10]): 0%
- Number of dead animal (BALB/C mice; [10]): 0
- solubility in Solvent 1 ([2]; solvent 1 (injectable water), Table 22, Paclitaxel series): soluble
- Concentration achieved, completely dissolved in both solvent 1 and solvent 2 ([2]; solvent 2 45% alcohol, 55% injectable water): 10000 µg/mL
- solubility in Solvent 2 ([2]; solvent 2 (45% alcohol, 55% injectable water), Table 22, Paclitaxel series): soluble
- Solubility in water, in words ([2]; water): can directly dissolve in water
- inhibitory rate on tumor Day 10 ([3]; Table 26, nude mice, IV once weekly for four weeks, A1-A4 24 mg/kg, Paclitaxel 8 mg/kg, Day 10): 71.9%
- Size of tumor (mm^3) Day 24 [3, 11]: 81.83 ± 89.2 mm^3
- inhibitory rate on tumor Day 24 [3, 11]: 78.5%
- Inhibition on tumor growth, in words [3]: greatly improved
- Inhibitory rate on metastasis (4T1 cells; [12]): 89.1%
- Number of metastasized tumor (4T1 cells; [12]): 16 ± 9
- Inhibitory effect on tumor metastasis, in words (4T1 cells): greatly improved

Compound: CCCCCOC(=O)Nc1nc(=O)n([C@@H]2O[C@H](C)[C@@H](OC(=O)OCc3ccc(NC(=O)[C@H](CC(N)=O)NC(=O)[C@H](C)NC(=O)[C@H](C)NC(=O)CCCCCCC(=O)NO)cc3)[C@H]2O)cc1F [Compound S3, 4-N—(N—(N—(N-(8-(N-hydroxylamino)-1,8-octandioic acid-1-monoacyl)-L-alanyl)-L-alanyl)-L-asparaginyl)-amino benzyl alcohol-capecitabine-carbonic acid diester]
- Cytoxicity reduced (Multiple) (HEK293 cells): 78 Multiple
- Activation efficiency by tumor tissue, in words (tumor tissue homogenates): very high activation efficiency
- Activation Efficiencies (%) [1]: 94.9%
